The text below walks through data of ChEMBL document CHEMBL4813957, “Antitubercular properties of thiazolidin-4-ones - A review” (Eur J Med Chem, 2021).

The subject of test [1] is Mycobacterium tuberculosis. The test is described as follows: Antimycobacterial activity against Mycobacterium bovis BCG assessed as inhibition of bacteria at 30 ug/ml by nitrate reductase assay. It is filed as functional. As to conditions: variant bovis BCG.
Test [2] has as its system Mycobacterium tuberculosis. The test can be described thus: Antimycobacterial activity against Mycobacterium bovis BCG. In kind it is functional, organism-based. As to conditions: variant bovis BCG.
Test [3] has as its system Mycobacterium tuberculosis. The test is described as follows: Antimycobacterial activity Mycobacterium bovis BCG measured up to 2 weeks. It is filed as functional. Particulars: variant bovis BCG, 336 h, time weeks <=2.
Test [4] deals with Mycobacterium tuberculosis. The test is described as follows: Antimycobacterial activity against Mycobacterium africanum measured up to 2 weeks. It is filed as functional. As to conditions: variant africanum, 336 h, time weeks <=2.

Converted amounts (≈) assume the structure as drawn.

Turning to `Cc1nc(-c2cnccn2)sc1C(=O)NN1C(=O)CSC1c1ccccc1` (centres undefined), the inhibition (usually the share of the control response that was lost under treatment) at 30 µg/mL in test [1] was 62%.

As for `O=C(O)CN1C(=O)/C(=C/c2ccc(Cl)cc2)SC1=S`, the IC50 (in general, the concentration that gives 50% inhibition) in test [2] stood at 7.4 µg/mL (≈ 23.6 µM).

Consider `O=C(O)CCCCCC1NC(=O)CS1` (centres undefined), for which the MIC (in general, the lowest concentration found to suppress growth) was 1.3 µM (≈ 0.282 µg/mL) in test [3] and 0.2 µM (≈ 0.0435 µg/mL) in test [4].
